Experimental data: patent US5512434A (priority 1992, dated 1996)

Legend:
[1] = biological target: T1, human phosphatase VHR, wild type, SEQ ID NO:2 (Homo sapiens, UniProt P51452); format: biochemical
T1 construct: fragment containing the entire VHR coding region; glutathione-S-transferase (GST), pGEX-KT (N, cleaved yes); made in house
Protocol: (§1) Production and purification of bacterially-expressed VHR. A 0.8 kB SalI-HinDIII fragment containing the entire VHR coding region was blunt-ended with DNA polymerase (Klenow fragment), and BamHI linkers were added. DNA was digested with BamHI, and inserted in-frame into the BamHI site of the pGEX-KT expression vector, described in Hakes et al., Anal. Biochem. 202:293-298 (1992), to produce pGEX-VHR. Plasmid pGEX-VHR was used to express VHR as a fusion protein with glutathione-S-transferase (GST). Expression and purification of GST-VHR was performed as described for a rat brain PTP. Guan et al. (Anal. Biochem. 1991). […] VHR protein, obtained by thrombin cleavage of the purified GST fusion protein, was used for phosphatase assays.
(§2) Phosphatase assays with purified VHR. Dephosphorylation of p-nitrophenylphosphate (pNPP) was performed as described previously. Tonks et al., J. Biol. Chem. 263:6731-6737 (1988).
(§3) Fischer et al. (1991); Hunter et al. (1989).

[2] = biological target: human phosphatase VHR (clone 27 lysate, pCEV27) (Homo sapiens, UniProt P51452); details: 3 mM sodium vanadate, 37 C, 30 minutes
Chain of human phosphatase VHR (clone 27 lysate, pCEV27) (P51452 whole entry): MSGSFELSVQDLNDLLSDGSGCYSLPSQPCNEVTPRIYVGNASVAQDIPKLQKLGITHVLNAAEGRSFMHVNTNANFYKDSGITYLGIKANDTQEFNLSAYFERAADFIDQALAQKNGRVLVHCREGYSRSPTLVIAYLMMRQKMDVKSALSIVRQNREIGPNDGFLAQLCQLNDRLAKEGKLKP
Protocol: Phosphatase assays with bacterial extracts. […] Cultures of E. coli strain Y1091 (50 ml), carrying either pCEV-bek, pCEV-lacZ (pCEV-lacZ vector without an insert), or pCEV27 were grown and induced with 1 mM IPTG as described. […] Cells were collected by centrifugation and lysed in 1 ml of buffer containing 50 mM HEPES, pH 7.4, 1% Triton X-100, and 1 mM phenylmethylsulfonyl fluoride. Lysates were sonicated twice for ten seconds each, clarified by centrifugation, and the supernatants were tested for phosphatase activity.
The reaction was stopped by boiling in sodium dodecyl sulfate polyacrylamide gel electrophoresis (SDS-PAGE) sample buffer, described by Laemmli, Nature 227:680-685 (1970), for three minutes. The Sample was divided into two equal aliquots, resolved by 6.5% SDS-PAGE, and transferred to Immobilon (Milipore).
Immunoblotting was performed with monoclonal anti-pTyr (Upstate Biotechnology, Inc.) or monoclonal anti-β-gal antibodies (Promega) as described previously.

[3] = biological target: highly purified PDGF receptor (baculovirus-expressed)
[4] = biological target: human phosphatase VHR as GST-VHR fusion protein (glutathione-S-transferase fusion, VHR SEQ ID NO:2) (Homo sapiens, UniProt P51452); details: hydrolysis of pNPP, absorbance at 410 nm
Chain of human phosphatase VHR as GST-VHR fusion protein (glutathione-S-transferase fusion, VHR SEQ ID NO:2) (P51452 whole entry, the tested form may be a part): as the sequence (P51452 whole entry) above
Protocol: as §1, §2, §3

T1 sequence (P51452 whole entry, the tested form may be a part): as the sequence (P51452 whole entry) above

Compound: sodium vanadate
- inhibition of pNPP hydrolysis by the phosphatase [1]: completely inhibited
- inhibition of the reduction of pTyr content of beta-gal-bek by clone 27 lysate [2]: inhibited

Compound: VHR (enzyme)
- Km of dephosphorylation (anti-pTyr/[125I]-protein A immunoblot, PhosphorImager) [3]: < 100 mM

Compound: O=[N+]([O-])c1ccc(OP(=O)(O)O)cc1 [pNPP, p-nitrophenylphosphate]
- Km (pNPP) after cleavage of the VHR from GST with thrombin ([1]; compared with GST-VHR fusion, data not shown): unchanged
- Km (pNPP) [4]: in the micromolar range

Compound: C=C1[C@@H](O)[C@@H]2O[C@]3(CC[C@H](/C=C/[C@@H](C)[C@@H]4CC(C)=C[C@@]5(O[C@H](C[C@@](C)(O)C(=O)O)CC[C@H]5O)O4)O3)CC[C@H]2O[C@@H]1[C@@H](O)C[C@H](C)[C@H]1O[C@@]2(CCCCO2)CC[C@H]1C [Okadaic acid]
- inhibitory effect on the enzyme activity (pNPP hydrolysis) [1]: no inhibitory effect

Compound: [F-].[Na+] [sodium fluoride]
- inhibitory effect on the enzyme activity (pNPP hydrolysis) [1]: no inhibitory effect
